{"source": "patent US20260176232A1", "about": "“PROBENECID COMPOUNDS FOR THE TREATMENT OF INFLAMMASOME-MEDIATED DERMATOLOGICAL CONDITIONS” (Bacainn Biotherapeutics, Ltd., priority 2022, published 2026)", "key": {"[1]": {"tested_on": "non-canonical inflammasome", "experiment": "IL-1β secretion in macrophages challenged with LPS (B4) (FIG. 4C)", "assay_type": "cell-based, human", "conditions": "BT032 20, 100 μM; Pam3Cys priming; LPS 0111:B4 16 h", "text": "In vitro stimulation of human macrophages."}, "[2]": {"tested_on": "inflammasome activation by UVB", "experiment": "Dermal UVB inflammatory challenge in healthy volunteers after intradermal dosing", "assay_type": "in vivo, human", "description": "This is a single-center, inflammatory challenge study in healthy volunteers, to evaluate inflammasome activation by UVB in healthy volunteers. Healthy volunteers will undergo a topical UVB challenge after intradermal dosing with BT032.\nUV-B Challenge+BT032 (n=9; 3 Placebo, 6 Active): • Screening: 1 hour admission • Study day (day −1 to 1): 24 hours admission (baseline assessments, challenge, and 2, 4 hr blister, skin assessments) • Follow-up visit 1 (day 2): 1 hour admission (24 hr blister) • End of study visit (+7 days): 1 hour admission\nInvestigational drug (BT032)+UVB challenge. As part of the screening assessments, the subject's Fitzpatrick skin photo type is determined (type I-VI). The subject is first exposed to 6 different doses of UV-B, to determine the Minimal Erythemic Dose (MED) expressed in J/cm^2, using the six different slots of the UV-B lamp. Twenty-four hours (±2 hours) after the exposure of the 6 doses, the erythemic response of the skin to UV-B is assessed by two observers. The MED is determined visually, by observing which dose produces the first clearly discernible erythema. On the treatment days, the subject's skin is exposed to two minimal erythema doses (2MED) of UVB.\nSubjects Groups. A total of 9 healthy volunteers will be enrolled. These subjects will undergo an UVB challenge after dosing with BT032. […]"}, "[3]": {"biological_target": "T1, recombinant full length NLRP1 (Homo sapiens, UniProt Q9C000)", "T1 sequence (Q9C000 1-1473)": "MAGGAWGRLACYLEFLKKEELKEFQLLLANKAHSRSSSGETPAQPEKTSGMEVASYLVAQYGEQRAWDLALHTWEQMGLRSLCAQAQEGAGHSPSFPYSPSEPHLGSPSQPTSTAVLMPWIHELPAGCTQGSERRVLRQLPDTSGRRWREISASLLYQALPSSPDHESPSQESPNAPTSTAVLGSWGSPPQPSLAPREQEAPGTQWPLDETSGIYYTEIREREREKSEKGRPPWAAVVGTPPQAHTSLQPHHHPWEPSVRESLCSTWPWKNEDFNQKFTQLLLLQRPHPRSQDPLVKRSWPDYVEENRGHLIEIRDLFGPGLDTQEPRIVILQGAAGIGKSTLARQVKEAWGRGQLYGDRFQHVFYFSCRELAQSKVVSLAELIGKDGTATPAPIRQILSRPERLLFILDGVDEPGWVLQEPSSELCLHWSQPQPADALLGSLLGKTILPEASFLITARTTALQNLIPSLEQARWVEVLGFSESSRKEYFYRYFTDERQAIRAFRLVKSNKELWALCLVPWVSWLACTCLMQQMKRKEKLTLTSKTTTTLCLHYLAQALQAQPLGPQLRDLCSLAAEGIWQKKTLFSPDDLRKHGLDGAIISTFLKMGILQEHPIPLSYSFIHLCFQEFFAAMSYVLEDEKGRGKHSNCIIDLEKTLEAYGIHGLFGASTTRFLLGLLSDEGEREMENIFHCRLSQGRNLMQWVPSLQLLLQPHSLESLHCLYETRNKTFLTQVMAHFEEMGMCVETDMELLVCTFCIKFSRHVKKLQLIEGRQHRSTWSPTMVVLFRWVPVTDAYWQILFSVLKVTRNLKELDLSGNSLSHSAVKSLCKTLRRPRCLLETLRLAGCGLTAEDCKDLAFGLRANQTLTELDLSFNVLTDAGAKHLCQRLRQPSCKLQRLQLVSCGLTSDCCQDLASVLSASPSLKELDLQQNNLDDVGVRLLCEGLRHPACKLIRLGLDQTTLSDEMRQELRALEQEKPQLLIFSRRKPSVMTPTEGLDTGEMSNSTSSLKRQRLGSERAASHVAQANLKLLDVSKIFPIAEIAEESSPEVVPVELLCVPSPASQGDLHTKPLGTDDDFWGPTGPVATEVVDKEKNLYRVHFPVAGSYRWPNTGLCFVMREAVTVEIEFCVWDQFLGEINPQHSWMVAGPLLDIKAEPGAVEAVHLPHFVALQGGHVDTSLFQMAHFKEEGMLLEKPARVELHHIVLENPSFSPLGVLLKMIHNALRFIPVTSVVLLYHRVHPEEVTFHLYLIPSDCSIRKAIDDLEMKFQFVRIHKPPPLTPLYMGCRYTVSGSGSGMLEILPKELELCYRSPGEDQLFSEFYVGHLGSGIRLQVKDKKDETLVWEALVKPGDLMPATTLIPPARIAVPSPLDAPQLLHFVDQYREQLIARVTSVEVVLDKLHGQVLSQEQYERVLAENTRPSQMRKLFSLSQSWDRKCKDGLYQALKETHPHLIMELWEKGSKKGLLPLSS", "experiment": "Photo-affinity labelling of recombinant full length NLRP1, anti-PEG immunoblot (FIG. 9E)", "assay_type": "binding", "conditions": "inferred from photo-affinity probes ADS165, ADS167", "description": "FIGS. 9A-9F are a series of panels showing ADS032 (also referred to herein as “BT032”) directly binds to NLRP1 and NLRP3. FIGS. 9A and 9B are chemical structures of ADS165 and ADS167. […] ADS165 was then co-incubated for 20 mins and UV treated for 20 mins to cross-link associated compound and protein. Protein was separated by SDS-PAGE and immunoblotted (IB) with anti-PEG to visualize ADS165-linked protein. FIG. 9D: iBMDM cells stably expressing NLRP3-Flag were treated for 30 mins with ADS165, ADS167 (1 mM) or MCC955 (50 μM) for 30 mins, and irradiated with UV 365 nm for 30 mins. Cells were lysed with buffer and immunoprecipitation (IP) of NLRP3 performed with α-NLRP3 (D4D8T) antibody. Levels of precipitated (IP) and total cellular lysate (Input) NLRP3 were determined by immunoblotting with α-NLRP3 (Cryo-2) antibody. FIG. 9F: NLRP1-Flag was expressed in HEK293T cells (1×10^6) for 20 h and treated with ADS165 (1 mM) for 30 mins where indicated, followed by UV 365 nm for a further 30 mins. Cells were lysed with lysis buffer and […] immunoprecipitated with α-Flag (M2) antibody. Proteins were separated by SDS-PAGE and ADS165-linked NLRP1 identified by immunoblot with a-PEG, while total precipitated NLRP1 visualized by immunoblot with α-NLRP1 and total cell lysate by α-Flag. Data shown is representative of three independent experiments.\nNext, it was determined whether ADSO32 could interact with NLRP1. […] To further investigate this interaction, ectopically expressed Flag-tagged NLRP1 was immunoprecipitated from cell lysates pretreated or not with ADS165 and exposed to UV light."}}, "data": [{"smiles": "CCCN(CCC)S(=O)(=O)c1ccc(-c2ccc(CCCC(=O)O)cc2)cc1", "note": "[BT032, 4-(4′-(N,N-dipropylsulfamoyl)-[1,1′-biphenyl]-4-yl)butanoic acid]", "values": [{"measurement": "non-canonical inflammasome activity (LPS (B4))", "setting": "[1]", "value": "limited impact"}, {"measurement": "levels of inflammasome-driven cytokines and/or inflammasome proteins versus non-treated controls", "setting": "[2]; IL-1β, IL-18, IL-6, TNF, NLRP3, ASC, NLRP1", "value": "reduced levels"}, {"measurement": "activation of inflammasomes versus non-treated controls", "setting": "[2]; intradermal dosing, UVB 2MED", "value": "reduction in the activation of inflammasomes"}, {"measurement": "direct interaction with NLRP1", "setting": "[3]", "value": "directly interacts proximal to the Walker B motif within the NACHT domain"}]}]}
